# In patent US20250073184A1, “CANNABIGEROQUINONE COMPOUNDS, COMPOSITIONS INCLUDING SUCH COMPOUNDS, AND USES OF SUCH COMPOUNDS AND COMPOSITIONS” (Juva Life, Inc., priority 2021, published 2025):
# pEC50, pIC50: −log10 of the molar value.
# What was measured:
# [1] = molecular target: T1, cannabinoid receptor 2 (CNR2) (Homo sapiens, UniProt P34972); assay: CB2 receptor agonist assay (cAMP Hunter eXpress, CNR2 CHO-K1 cells); assay type: cell-based; details: agonist mode, Forskolin-stimulated cAMP, CNR2 CHO-K1 cells
# T1 construct: host or cells: CHO-K1
# Experimental: The assays were performed in cAMP Hunter eXpress cells engineered to overexpress naturally Gi/Go-coupled wildtype cannabinoid receptor 1 (CNR1) or cannabinoid receptor 2 (CNR2) in CHO-K1 cell type. In these cells, CB1 and/or […] agonists inhibit production of intracellular cAMP in response to stimulation with Forskolin. cAMP levels are determined using luminogenic detection reagents provided with the Hunter eXpress cAMP detection kit.
# • Assay ready CNR1 CHO-K1 cells were obtained from Eurofins/Discover X, cat #95-0071E2 • Assay ready CNR2 CHO-K1 cells were obtained from Eurofins/Discover X, cat #95-0183E2 • Hunter eXpress cAMP detection kit was also from Discover X. The kit includes all cAMP detection reagents, Forskolin, complete cell plating medium and cell assay buffer.
# The Assay-Ready CNR1 CHO-K1 or CNR2 CHO-K1 cells were thawed and re-suspended in pre-warmed Assay Complete plating medium and inoculated into 96 well plate at a density of 30,000 cells in 100 μL. The plates with cells were incubated for 24 h at 37° C. in 5% CO2. […] The cells were stimulated with the Forskolin/compound buffer for 30 min. After stimulation, 15 μL of cAMP antibody reagent and 60 μL of cAMP working detection solution were added to the cells and, the cells were incubated for 1 h at room temperature. After 1 h incubation, 60 μL of cAMP Solution A was added to the wells and the plate was incubated for 3 h at room temperature. The plate was read on Biotek Synergy Neo2 reader in luminescent mode. CB1 and CB2 agonists should reduce cAMP production in response to Forskilin. Relative luminescence units (RLUs) were plotted against compound concentration to determine apparent EC50 values of the agonist compounds.
# [2] = test system: PANC-1 pancreatic carcinoma cell line; assay: PANC-1 cell line toxicity (Cell titer Glo viability); details: PANC-1, 72 h
# Experimental: The half maximal inhibition concentration (IC50) for each compound was determined by harvesting cells during the logarithmic growth period and then counting cell number using hemocytometer. The cell concentrations were adjusted to 5×10^4 cells/mL with respective culture medium. 30 μL of cell suspensions were added to three 384-well plates with the final cell density of 1.5×10^3 cells/well. Then, using a Biomek FX, test articles were serially diluted (10 mM top, 3× dilution intervals) along with a reference inhibitor (1 mM top, 3× dilution intervals) in acoustic grade Labcyte plate. Then, using an acoustic dispenser (Labcyte550), compounds were added as serially diluted to plate with cells: 90 nL of serially diluted compounds per well. 90 nL DMSO is added to control wells. Test plates were incubated for 72 h in the humidified incubator at 37° C. with 5% CO2. 25 μL of reconstituted Cell titer Glo reagent was added to each well. Each test plate was then incubated for 20 min at room temperature. Luminescence was then recorded using Synergy Neo2Multi-mode Reader.
# In order to calculate intersect IC50, a dose-response curve was fitted using nonlinear regression model with a sigmoidal dose response.
# The formula for calculating surviving rate is shown below, and the intersect IC50 was calculated according to the dose-response curve generated by the software:
# Culture medium were purchased from ATCC, USA.
# Human COX2 = molecular target: T2, Human COX2 (Homo sapiens, UniProt P35354); assay: Biochemical COX-2 assay; details: recombinant enzyme; read-out: Inhibitory Activity EC50, Cox2
# T2 construct: 1-604 (end); purchased BPS Biosciences 71111; host or cells: baculovirus infected Sf9 cells
# T2 sequence (P35354 18-604): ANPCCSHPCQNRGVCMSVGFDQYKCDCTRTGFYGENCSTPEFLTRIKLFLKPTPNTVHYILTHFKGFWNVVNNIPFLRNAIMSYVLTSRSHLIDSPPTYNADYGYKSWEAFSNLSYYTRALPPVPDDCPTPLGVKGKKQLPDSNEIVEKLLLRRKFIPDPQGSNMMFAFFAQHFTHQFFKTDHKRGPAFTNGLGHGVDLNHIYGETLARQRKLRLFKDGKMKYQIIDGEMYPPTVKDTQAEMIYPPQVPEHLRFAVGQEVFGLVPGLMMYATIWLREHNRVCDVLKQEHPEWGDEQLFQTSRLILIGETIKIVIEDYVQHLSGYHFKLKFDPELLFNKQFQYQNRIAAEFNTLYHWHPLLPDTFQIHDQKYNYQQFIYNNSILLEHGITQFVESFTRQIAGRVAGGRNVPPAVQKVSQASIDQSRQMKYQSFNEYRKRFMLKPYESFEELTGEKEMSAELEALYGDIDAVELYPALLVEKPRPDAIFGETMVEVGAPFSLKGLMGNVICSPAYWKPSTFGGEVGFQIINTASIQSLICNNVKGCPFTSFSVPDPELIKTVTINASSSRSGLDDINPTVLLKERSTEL
# Source text: • Human COX2, GenBank Accession No. NM_000963, a.a. 1-604 (end), with C-terminal FLAG-His-tag, MW=71 kDa, expressed in a baculovirus infected Sf9 cell expression system was obtained from BPS Biosciences (Catalog #71111) • Cyclooxygenase (COX) Activity Assay Kit (Fluorometric) was obtained from Abcam (Catalog #ab204699) • Other reagents: black 384 well assay plates were obtained from Corning (Cat #3820). • Equipment: Synergy Neo2 Multi-mode plate reader (Biotek), Labcyte 550 acoustic dispenser (Labcyte), Biomek FX robotic dispenser (Beckman Coulter), Sorvall Legend RT centrifuge (Kendro).
# Serially diluted compounds were prepared in DMSO in Echo qualified 384 well plates. An assay buffer was then prepared, and supplemented with Cox cofactor and fluorogenic probe as described in the Cox activity kit manual. […]
# Serially diluted compounds were added to the assay plate by acoustic dispensing (Labcyte 550). […] Afterwards, the plate was read on a Synergy Neo2 in fluorescence mode: excitation 535 nm, emission 590 nm. % inhibition of the compound was calculated using following equation:
# where RFU100% is fluorescence in control samples without compound, RFU0% is fluorescence in control samples without COX-2, and RFU compound fluorescence in a sample with compound.
# The calculated %-Inh values were then plotted against compound concentration. […]
# T1 sequence (P34972 whole entry): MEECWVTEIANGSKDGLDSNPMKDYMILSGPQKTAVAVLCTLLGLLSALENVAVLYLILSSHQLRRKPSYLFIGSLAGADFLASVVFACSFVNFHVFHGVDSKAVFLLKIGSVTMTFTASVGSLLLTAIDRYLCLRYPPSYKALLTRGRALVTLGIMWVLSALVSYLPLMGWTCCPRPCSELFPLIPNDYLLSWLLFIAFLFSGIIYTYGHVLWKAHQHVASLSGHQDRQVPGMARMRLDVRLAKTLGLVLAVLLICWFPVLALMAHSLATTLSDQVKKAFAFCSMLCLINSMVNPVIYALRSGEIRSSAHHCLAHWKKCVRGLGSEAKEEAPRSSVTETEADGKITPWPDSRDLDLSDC
substance,measurement,setting,value
Cannabigerol Quinone [Formula VI],pIC50,[1],6.92
same,higher tolerance of PANG-1 cells to the compound than staurosporine,[2],more than 750 fold
same,Cell Viability (%),[2]; 0.00017 uM,106.6%
same,Cell Viability (%),[2]; 0.00051 uM,107.5%
same,Cell Viability (%),[2]; 0.0015 uM,100.4%
same,Cell Viability (%),[2]; 0.0046 uM,104.2%
same,Cell Viability (%),[2]; 0.014 uM,100.2%
same,Cell Viability (%),[2]; 0.041 uM,99.9%
same,Cell Viability (%),[2]; 0.12 uM,99.2%
same,Cell Viability (%),[2]; 0.37 uM,98.6%
same,Cell Viability (%),[2]; 1.1 uM,102.6%
same,Cell Viability (%),[2]; 3.3 uM,95.7%
same,Cell Viability (%),[2]; 10 uM,99.4%
same,Cell Viability (%),[2]; 30 uM,99.8%
same,pEC50,[2]; read-out: EC50 (cell viability),< 4.52
same,pEC50,Human COX2,4.22
